This is an account of results in the OligoGym collection.

HELM strings list units from the 5' end as sugar, base in round brackets, then linkage (d deoxyribose, r ribose, m 2'-O-methyl, p phosphodiester). Strings are as the collection lists them; they lack the last nucleoside at the 3' end of the tested compound. [moe] = 2'-O-(2-methoxyethyl) (MOE); [sp] = phosphorothioate linkage; [m5C] = 5-methylcytosine

The target in this data set is ATXN2. In words: mouse, dose not given. Conditions: ASO.
“RNA1{[moe](T)[sp].[moe](G)p.[moe](T)p.[moe](A)p.[moe]([m5C])[sp].d(T)[sp].d(T)[sp].d(T)[sp].d(T)[sp].d([m5C])[sp].d(T)[sp].d([m5C])[sp].d(A)[sp].[moe](T)p.[moe](G)p.[moe](T)[sp].[moe](G)}$$$$ (last 3' nucleoside missing)”: the 3 h FOB score was found to be 0 score 0-7.

In turn, “RNA1{[moe](T)[sp].[moe](G)p.[moe](T)p.[moe](A)p.[moe]([m5C])[sp].d(T)[sp].d(T)[sp].d([m5C])[sp].d(A)[sp].d([m5C])[sp].d(A)[sp].d(T)[sp].d(T)[sp].[moe](T)p.[moe](G)p.[moe](G)[sp].[moe](A)}$$$$ (last 3' nucleoside missing)” came in with a 3 h FOB score of 3.5 score 0-7.

Regarding “RNA1{[moe](T)[sp].[moe](G)p.[moe](T)p.[moe](A)p.[moe]([m5C])[sp].d(T)[sp].d(T)[sp].d([m5C])[sp].d(A)[sp].d([m5C])[sp].d(A)[sp].d(T)[sp].d(T)[sp].d(T)[sp].d(G)[sp].[moe](G)p.[moe](A)p.[moe](G)[sp].[moe]([m5C])}$$$$ (last 3' nucleoside missing)”, the 3 h FOB score turned out to be 3 score 0-7.

Consider “RNA1{[moe](T)[sp].[moe](G)p.[moe](T)p.[moe](A)p.[moe]([m5C])p.[moe](T)p.d(T)[sp].d([m5C])[sp].d(A)[sp].d([m5C])[sp].d(A)[sp].d(T)[sp].d(T)[sp].d(T)[sp].d(G)[sp].d(G)[sp].[moe](A)p.[moe](G)[sp].[moe]([m5C])}$$$$ (last 3' nucleoside missing)”, for which the 3 h FOB score is 2.5 score 0-7.

As to “RNA1{[moe](T)[sp].[moe](G)p.[moe](T)p.[moe](A)p.[moe]([m5C])p.d(T)[sp].d(T)[sp].d(T)[sp].d(T)[sp].d([m5C])[sp].d(T)[sp].d([m5C])[sp].d(A)[sp].d(T)[sp].d(G)[sp].[moe](T)p.[moe](G)p.[moe]([m5C])[sp].[moe](G)}$$$$ (last 3' nucleoside missing)”, the 3 h FOB score worked out at 1 score 0-7.

“RNA1{[moe](T)[sp].[moe](G)p.[moe](T)p.[moe](A)p.[moe]([m5C])p.d(T)[sp].d(T)[sp].d([m5C])[sp].d(A)[sp].d(A)[sp].d(A)[sp].d(T)[sp].d(T)[sp].d(T)[sp].d(T)[sp].[moe](G)p.[moe](T)p.[moe](T)[sp].[moe](T)}$$$$ (last 3' nucleoside missing)” gave a 3 h FOB score of 0 score 0-7.

The substance “RNA1{[moe](T)[sp].[moe](G)p.[moe](T)p.[moe](A)p.[moe]([m5C])p.d(T)[sp].d(T)[sp].d([m5C])[sp].d(A)[sp].d([m5C])[sp].d(A)[sp].d(T)[sp].d(T)[sp].d(T)[sp].d(G)[sp].[moe](G)p.[moe](A)p.[moe](G)[sp].[moe]([m5C])}$$$$ (last 3' nucleoside missing)” yielded a 3 h FOB score of 2 score 0-7.

As to “RNA1{[moe](T)[sp].[moe](G)p.[moe](T)p.[moe](A)p.d([m5C])[sp].d(T)[sp].d(T)[sp].d([m5C])[sp].d(A)[sp].d([m5C])[sp].d(A)[sp].d(T)[sp].d(T)[sp].d(T)[sp].[moe](G)p.[moe](G)p.[moe](A)p.[moe](G)[sp].[moe]([m5C])}$$$$ (last 3' nucleoside missing)”, the 3 h FOB score is 1 score 0-7.

“RNA1{[moe](T)[sp].[moe](G)p.[moe](T)p.[moe](G)p.[moe](A)p.d(G)[sp].d(T)[sp].d(T)[sp].d([m5C])[sp].d(A)[sp].d([m5C])[sp].d([m5C])[sp].d(T)[sp].d(G)[sp].d([m5C])[sp].[moe](A)p.[moe](T)p.[moe]([m5C])[sp].[moe]([m5C])}$$$$ (last 3' nucleoside missing)”: the 3 h FOB score was determined as 3.5 score 0-7.

Regarding “RNA1{[moe](T)[sp].[moe](G)p.[moe](T)p.[moe](G)p.[moe](T)p.d(A)[sp].d(T)[sp].d(T)[sp].d(T)[sp].d(T)[sp].d(T)[sp].d([m5C])[sp].d(T)[sp].d(T)[sp].d([m5C])[sp].[moe]([m5C])p.[moe](T)p.[moe]([m5C])[sp].[moe](A)}$$$$ (last 3' nucleoside missing)”, the 3 h FOB score stood at 0.25 score 0-7.

Consider “RNA1{[moe](T)[sp].[moe](G)p.[moe](T)p.[moe](G)p.[moe](T)p.d(T)[sp].d([m5C])[sp].d(A)[sp].d(T)[sp].d(G)[sp].d(A)[sp].d([m5C])[sp].d(T)[sp].d(T)[sp].d(T)[sp].[moe]([m5C])p.[moe](A)p.[moe](A)[sp].[moe](G)}$$$$ (last 3' nucleoside missing)”, for which the 3 h FOB score amounted to 4.5 score 0-7.

“RNA1{[moe](T)[sp].[moe](G)p.[moe](T)p.[moe](T)p.[moe](A)p.d([m5C])[sp].d(T)[sp].d(G)[sp].d(T)[sp].d(T)[sp].d(T)[sp].d([m5C])[sp].d(G)[sp].d(A)[sp].d([m5C])[sp].[moe]([m5C])p.[moe](T)p.[moe]([m5C])[sp].[moe](T)}$$$$ (last 3' nucleoside missing)” came in with a 3 h FOB score of 6.25 score 0-7.

“RNA1{[moe](T)[sp].[moe](G)p.[moe](T)p.[moe](T)p.[moe](A)p.d([m5C])[sp].d(T)[sp].d(T)[sp].d(A)[sp].d(T)[sp].d(T)[sp].d(A)[sp].d([m5C])[sp].d([m5C])[sp].d(T)[sp].[moe](T)p.[moe]([m5C])p.[moe]([m5C])[sp].[moe](T)}$$$$ (last 3' nucleoside missing)” displayed a 3 h FOB score of 4 score 0-7.

The substance “RNA1{[moe](T)[sp].[moe](G)p.[moe](T)p.[moe](T)p.[moe](G)p.d(T)[sp].d(T)[sp].d(G)[sp].d(T)[sp].d(T)[sp].d(T)[sp].d(A)[sp].d([m5C])[sp].d(A)[sp].d(T)[sp].[moe](T)p.[moe](A)p.[moe](T)[sp].[moe](T)}$$$$ (last 3' nucleoside missing)” registered a 3 h FOB score of 0 score 0-7.

As for “RNA1{[moe](T)[sp].[moe](G)p.[moe](T)p.[moe](T)p.[moe](G)p.d([m5C])[sp].d(A)[sp].d([m5C])[sp].d(A)[sp].d(T)[sp].d(A)[sp].d(G)[sp].d(G)[sp].d(T)[sp].d(T)[sp].[moe](A)p.[moe](G)p.[moe](A)[sp].[moe](A)}$$$$ (last 3' nucleoside missing)”, the 3 h FOB score was determined as 4 score 0-7.

Turning to “RNA1{[moe](T)[sp].[moe](G)p.[moe](T)p.[moe](T)p.[moe](T)p.d(G)[sp].d(T)[sp].d(T)[sp].d(T)[sp].d(G)[sp].d(T)[sp].d(T)[sp].d(T)[sp].d(T)[sp].d(A)[sp].[moe](A)p.[moe](G)p.[moe](T)[sp].[moe](A)}$$$$ (last 3' nucleoside missing)”, the 3 h FOB score is 6.5 score 0-7.

“RNA1{[moe](T)[sp].[moe](G)p.[moe](T)p.[moe](T)p.[moe]([m5C])p.d(T)[sp].d(T)[sp].d([m5C])[sp].d([m5C])[sp].d(A)[sp].d(A)[sp].d(T)[sp].d(T)[sp].d(T)[sp].d([m5C])[sp].[moe](A)p.[moe](G)p.[moe](A)[sp].[moe]([m5C])}$$$$ (last 3' nucleoside missing)”: the 3 h FOB score came out at 0 score 0-7.

Regarding “RNA1{[moe](T)[sp].[moe](G)p.[moe](T)p.[moe]([m5C])p.[moe](A)p.d(T)[sp].d(A)[sp].d([m5C])[sp].d(T)[sp].d(G)[sp].d(T)[sp].d(A)[sp].d(T)[sp].d(T)[sp].d(G)[sp].[moe](T)p.[moe](T)p.[moe](T)[sp].[moe](T)}$$$$ (last 3' nucleoside missing)”, the 3 h FOB score is 5.25 score 0-7.

As to “RNA1{[moe](T)[sp].[moe](G)p.[moe]([m5C])p.[moe](A)p.[moe](A)p.d([m5C])[sp].d(T)[sp].d(T)[sp].d(A)[sp].d(A)[sp].d(T)[sp].d(A)[sp].d(A)[sp].d([m5C])[sp].d([m5C])[sp].[moe](T)p.[moe](T)p.[moe](A)[sp].[moe](G)}$$$$ (last 3' nucleoside missing)”, the 3 h FOB score amounted to 1.75 score 0-7.

On to “RNA1{[moe](T)[sp].[moe](G)p.[moe]([m5C])p.[moe](T)p.[moe](A)[sp].d(A)[sp].d([m5C])[sp].d(T)[sp].d(G)[sp].d(G)[sp].d(T)[sp].d(T)[sp].d(T)[sp].[moe](G)p.[moe]([m5C])p.[moe]([m5C])[sp].[moe]([m5C])}$$$$ (last 3' nucleoside missing)”, for which the 3 h FOB score was found to be 6 score 0-7.

Take “RNA1{[moe](T)[sp].[moe](G)p.[moe]([m5C])p.[moe](T)p.[moe](A)p.d(A)[sp].d([m5C])[sp].d(T)[sp].d(G)[sp].d(G)[sp].d(T)[sp].d(T)[sp].d(T)[sp].d(G)[sp].d([m5C])[sp].[moe]([m5C])p.[moe]([m5C])p.[moe](T)[sp].[moe](T)}$$$$ (last 3' nucleoside missing)”: the 3 h FOB score came to 7 score 0-7.

Turning to “RNA1{[moe](T)[sp].[moe](G)p.[moe]([m5C])p.[moe](T)p.[moe](T)p.d(A)[sp].d(T)[sp].d(T)[sp].d(A)[sp].d(T)[sp].d(T)[sp].d([m5C])[sp].d(T)[sp].d([m5C])[sp].d(A)[sp].[moe]([m5C])p.[moe](A)p.[moe](T)[sp].[moe](A)}$$$$ (last 3' nucleoside missing)”, the 3 h FOB score was 0 score 0-7.

“RNA1{[moe](T)[sp].[moe](G)p.[moe]([m5C])p.[moe](T)p.[moe]([m5C])p.d(T)[sp].d([m5C])[sp].d(T)[sp].d(T)[sp].d(T)[sp].d(G)[sp].d([m5C])[sp].d(G)[sp].d([m5C])[sp].d([m5C])[sp].[moe](T)p.[moe](G)p.[moe](T)[sp].[moe](G)}$$$$ (last 3' nucleoside missing)” registered a 3 h FOB score of 5 score 0-7.

Turning to “RNA1{[moe](T)[sp].[moe](G)p.[moe]([m5C])p.[moe]([m5C])p.[moe](T)[sp].d([m5C])[sp].d(T)[sp].d(A)[sp].d([m5C])[sp].d(T)[sp].d([m5C])[sp].d(G)[sp].d(G)[sp].[moe](T)p.[moe]([m5C])p.[moe]([m5C])[sp].[moe](A)}$$$$ (last 3' nucleoside missing)”, the 3 h FOB score amounted to 4 score 0-7.

“RNA1{[moe](T)[sp].[moe](T)p.[moe](A)p.[moe](A)p.[moe]([m5C])p.d(A)[sp].d([m5C])[sp].d(T)[sp].d(T)[sp].d(T)[sp].d(A)[sp].d([m5C])[sp].d(T)[sp].d([m5C])[sp].d(A)[sp].[moe]([m5C])p.[moe](T)p.[moe](G)[sp].[moe]([m5C])}$$$$ (last 3' nucleoside missing)” returned a 3 h FOB score of 4.5 score 0-7.

“RNA1{[moe](T)[sp].[moe](T)p.[moe](A)p.[moe](A)p.[moe]([m5C])p.d(T)[sp].d(G)[sp].d(T)[sp].d(G)[sp].d(T)[sp].d(T)[sp].d(A)[sp].d(G)[sp].d(A)[sp].d(A)[sp].[moe](T)p.[moe](G)p.[moe]([m5C])[sp].[moe](T)}$$$$ (last 3' nucleoside missing)” had a 3 h FOB score of 5.5 score 0-7.
